In PMC10301922, “Anti-Oxidant, Anti-Mutagenic Activity and Safety Evaluation of Antrocin” (Toxics, 2023):
Where two headings read alike, the source gives them in different places.

Legend:
[1] = 28-day oral toxicity test: body weight; format: in vivo
CHO-K1 cells = system: CHO-K1 cells
Experimental: A chromosomal aberration test was performed to evaluate the potential for antrocin to induce structural chromosomal abnormalities in Chinese hamster ovary cells (CHO-K1 cells). The test followed the protocol in Genetic Toxicology Testing: A Laboratory Manual. CHO-K1 cells were obtained from the Bioresource Collection and Research Center (BCRC), and were cultured in Ham F-12 medium with 10% fetal bovine serum and 0.1% Penicillin–Streptomycin at 5% CO2 in a 37 °C incubator. […] Three experimental conditions were conducted: 3 h with and without S9 (short term), and 19 h without S9 (long term). […] CHO-K1 cells were cultured in 25T flasks, incubated with samples for 3 or 19 h with and without S9, and harvested at the time of 1.5 cell cycle lengths (about 21 h). Two hours before harvesting, 100 μL colcemid (10 μg/mL) was added to disrupt cell mitosis. Collected cells were then treated with 0.6% KCl solution and fixed with acetic acid–methanol (1:3) solution. After fixation, cells were stained with Diff-Quik on a glass slide. A total of 300 cells in metaphase per group were observed, and the number of chromosomal aberrations was recorded. The chromosomal aberration rate (%) was calculated using the following formula: (number of cells with aberrations/total number of cells examined) × 100. A Student’s t-test was used for statistical analysis, and a significant increase (p < 0.05) compared to the negative control indicated a positive response.

[2] = system: Salmonella typhimurium TA1535; experiment: Ames test (plate incorporation), TA1535
[3] = system: lung cancer tumor xenografts; set-up: method as in PMID 23880305; settings: 5 mg/kg/day intraperitoneal; cited from earlier work

C=C1CC[C@H]2C(C)(C)CCC[C@@]23C(=O)OC[C@@H]13 [Antrocin, (-)-Antrocin]
Body Weight ([1]; female rats, 7.5 mg/kg oral, 0-Day): 163.3 ± 6.3 g | Body Weight ([1]; female rats, 7.5 mg/kg oral, 7-Day): 190.0 ± 9.0 g | Body Weight Gain ([1]; female rats, 7.5 mg/kg oral, 7-Day (7th − 0th)): 26.7 ± 5.6 g | Body Weight ([1]; female rats, 7.5 mg/kg oral, 14-Day): 212.9 ± 12.1 g | Body Weight Gain ([1]; female rats, 7.5 mg/kg oral, 14-Day (14th − 7th)): 22.8 ± 6.0 g | Body Weight ([1]; female rats, 7.5 mg/kg oral, 21-Day): 229.3 ± 14.6 g | Body Weight Gain ([1]; female rats, 7.5 mg/kg oral, 21-Day (21st − 14th)): 16.4 ± 5.2 g | Body Weight ([1]; female rats, 7.5 mg/kg oral, 28-Day): 246.6 ± 21.7 g | Body Weight Gain ([1]; female rats, 7.5 mg/kg oral, 28-Day (28th − 21st)): 17.3 ± 7.9 g | Body Weight ([1]; female rats, 37.5 mg/kg oral, 0-Day): 162.4 ± 6.3 g | Body Weight ([1]; female rats, 37.5 mg/kg oral, 7-Day): 188.5 ± 7.9 g | Body Weight Gain ([1]; female rats, 37.5 mg/kg oral, 7-Day (7th − 0th)): 26.1 ± 4.1 g | Body Weight ([1]; female rats, 37.5 mg/kg oral, 14-Day): 212.0 ± 7.0 g | Body Weight Gain ([1]; female rats, 37.5 mg/kg oral, 14-Day (14th − 7th)): 23.4 ± 3.6 g | Body Weight ([1]; female rats, 37.5 mg/kg oral, 21-Day): 230.1 ± 9.7 g | Body Weight Gain ([1]; female rats, 37.5 mg/kg oral, 21-Day (21st − 14th)): 18.1 ± 5.0 g | Body Weight ([1]; female rats, 37.5 mg/kg oral, 28-Day): 241.7 ± 13.6 g | Body Weight Gain ([1]; female rats, 37.5 mg/kg oral, 28-Day (28th − 21st)): 11.6 ± 6.3 g | Body Weight ([1]; male rats, 7.5 mg/kg oral, 0-Day): 181.4 ± 5.1 g | Body Weight ([1]; male rats, 7.5 mg/kg oral, 7-Day): 237.9 ± 13.6 g | Body Weight Gain ([1]; male rats, 7.5 mg/kg oral, 7-Day (7th − 0th)): 56.5 ± 10.1 g | Body Weight ([1]; male rats, 7.5 mg/kg oral, 14-Day): 295.0 ± 22.5 g | Body Weight Gain ([1]; male rats, 7.5 mg/kg oral, 14-Day (14th − 7th)): 57.1 ± 8.9 g | Body Weight ([1]; male rats, 7.5 mg/kg oral, 21-Day): 349.5 ± 34.3 g | Body Weight Gain ([1]; male rats, 7.5 mg/kg oral, 21-Day (21st − 14th)): 54.5 ± 12.4 g | Body Weight ([1]; male rats, 7.5 mg/kg oral, 28-Day): 389.6 ± 46.6 g | Body Weight Gain ([1]; male rats, 7.5 mg/kg oral, 28-Day (28th − 21st)): 40.1 ± 12.5 g | Body Weight ([1]; male rats, 37.5 mg/kg oral, 0-Day): 183.9 ± 9.0 g | Body Weight ([1]; male rats, 37.5 mg/kg oral, 7-Day): 235.6 ± 9.6 g | Body Weight Gain ([1]; male rats, 37.5 mg/kg oral, 7-Day (7th − 0th)): 51.8 ± 4.7 g | Body Weight ([1]; male rats, 37.5 mg/kg oral, 14-Day): 289.0 ± 17.3 g | Body Weight Gain ([1]; male rats, 37.5 mg/kg oral, 14-Day (14th − 7th)): 53.4 ± 13.9 g | Body Weight ([1]; male rats, 37.5 mg/kg oral, 21-Day): 332.3 ± 21.0 g | Body Weight Gain ([1]; male rats, 37.5 mg/kg oral, 21-Day (21st − 14th)): 43.2 ± 7.7 g | Body Weight ([1]; male rats, 37.5 mg/kg oral, 28-Day): 367.6 ± 30.6 g | Body Weight Gain ([1]; male rats, 37.5 mg/kg oral, 28-Day (28th − 21st)): 35.3 ± 12.9 g | chromosomal aberration frequency versus negative control (CHO-K1 cells; 25-100 μg/mL, short-term with S9, short-term without S9, long-term exposure): no significant differences | Frequency of Chromosomal Aberration (%) (CHO-K1 cells; with S9 (3 h), 25 μg/mL): 5.3 ± 1.2% | Total Aberrations (CHO-K1 cells; with S9 (3 h), 25 μg/mL): 16/300 | Frequency of Chromosomal Aberration (%) (CHO-K1 cells; with S9 (3 h), 50 μg/mL): 6.3 ± 2.1% | Total Aberrations (CHO-K1 cells; with S9 (3 h), 50 μg/mL): 19/300 | Frequency of Chromosomal Aberration (%) (CHO-K1 cells; with S9 (3 h), 100 μg/mL): 6.3 ± 2.1% | Total Aberrations (CHO-K1 cells; with S9 (3 h), 100 μg/mL): 19/300 | Frequency of Chromosomal Aberration (%) (CHO-K1 cells; without S9 (3 h), 25 μg/mL): 4.3 ± 3.8% | Total Aberrations (CHO-K1 cells; without S9 (3 h), 25 μg/mL): 13/300 | Frequency of Chromosomal Aberration (%) (CHO-K1 cells; without S9 (3 h), 50 μg/mL): 4.3 ± 2.9% | Total Aberrations (CHO-K1 cells; without S9 (3 h), 50 μg/mL): 13/300 | Frequency of Chromosomal Aberration (%) (CHO-K1 cells; without S9 (3 h), 100 μg/mL): 5.3 ± 2.1% | Total Aberrations (CHO-K1 cells; without S9 (3 h), 100 μg/mL): 16/300 | Frequency of Chromosomal Aberration (%) (CHO-K1 cells; without S9 (19 h), 25 μg/mL): 9.3 ± 1.2% | Total Aberrations (CHO-K1 cells; without S9 (19 h), 25 μg/mL): 28/300 | Frequency of Chromosomal Aberration (%) (CHO-K1 cells; without S9 (19 h), 50 μg/mL): 10.3 ± 2.5% | Total Aberrations (CHO-K1 cells; without S9 (19 h), 50 μg/mL): 31/300 | Frequency of Chromosomal Aberration (%) (CHO-K1 cells; without S9 (19 h), 100 μg/mL): 7.3 ± 1.5% | Total Aberrations (CHO-K1 cells; without S9 (19 h), 100 μg/mL): 22/300 | Number of Revertant ([2]; TA1535, with S9, 0.003125 mg/plate): 17.3 ± 0.5 Colony/Plate | Number of Revertant ([2]; TA1535, with S9, 0.00625 mg/plate): 15.7 ± 6.1 Colony/Plate | Number of Revertant ([2]; TA1535, with S9, 0.025 mg/plate): 18.0 ± 1.6 Colony/Plate | Number of Revertant ([2]; TA1535, with S9, 0.05 mg/plate): 14.0 ± 2.4 Colony/Plate | Number of Revertant ([2]; TA1535, without S9, 0.003125 mg/plate): 11.7 ± 2.4 Colony/Plate | Number of Revertant ([2]; TA1535, without S9, 0.00625 mg/plate): 14.7 ± 4.0 Colony/Plate | Number of Revertant ([2]; TA1535, without S9, 0.025 mg/plate): 10.7 ± 1.2 Colony/Plate | Number of Revertant ([2]; TA1535, without S9, 0.05 mg/plate): 12.7 ± 2.9 Colony/Plate | growth of lung cancer tumor xenografts [3]: significantly suppressed the growth
